In patent publication US9566334B2, “Combinations of a PI3K/AKT inhibitor compound with an HER3/EGFR inhibitor compound and use thereof in the treatment of a hyperproliferative disorder” (THE GENERAL HOSPITAL CORPORATION, priority 2012, dated 2017):
Entries after “also recorded” stand apart in the source; their conditions may differ.

Legend:
TNBC cell lines = assay: Cell viability by CellTiter-Glo and Crystal Violet; format: cell-based; conditions: across all TNBC cell lines; read-out: IC50s, inhibition of cell viability
Description: (§1) Several TNBC cell lines were treated with MEHD7945A, a dual-action antibody that targets both EGFR and HER3, AKT inhibitor GDC-0068, and pan-PI3K inhibitor GDC -0941. Cell viability was measured by CellTiter-Glo and Crystal Violet. Both cell line- and patient -derived xenograft models of TNBC were treated with MEHD7945A, GDC-0068, GDC-0941, or the combination of MEHD7945A with either GDC-0068 or GDC-0941. Tumor size and histology were examined. Protein expression was measured by Western blot, Mass Spectometry, CEER and immunohistochemistry.
(§2) For proliferation, 5×10^5 cells were seeded in 96-well plates and treated with the indicated concentrations of GDC-0068, GDC-0941, and/or MEHD7945A. After 5 days, cells were fixed and stained with Crystal Violet. Cell proliferation was also analyzed with CellTiter-Glo Luminescent Cell Viability Assay (Promega) as described by the manufacturer. For heregulin (HRG, Peprotech) and epidermal growth factor (EGF, Peprotech)-induced proliferation, 5×10^5 cells were treated with GDC-0068, GDC-0941, and/or MEHD7945A in the presence of 4 ng/ml of ligands for 5 days and then stained with Crystal Violet.

[1] = tested on: patient-derived xenografts (PDX) of TNBC; assay: Patient-derived xenograft tumor growth; format: in vivo, mice; conditions: MEHD7945A 10 mg/Kg twice weekly, GDC-0941 75 mg/Kg daily, GDC-0068 40 mg/kg daily
Description: The activity of the same treatments in patient-derived xenografts (PDX) of TNBC was then tested.
(§3) For patient-derived xenograft (PDX) studies, tumors were subcutaneously implanted in 6-week old female athymic nude mice. Upon xenograft growth, tumor tissue was reimplanted into recipient mice, which were randomized upon implant growth. For the collection of circulating tumor cells (CTCs), tumors were implanted into the mammary pad of athymic nude mice.
(§4) Once tumors reached an average volume of about 150-250 mm^3, mice were randomized into treatment arms, with n=7-11 tumors/group. GDC-0068 [40 mg/kg] or GDC-0941 [75 mg/kg] were dissolved in 0.5% methylcellulose and 0.2% Tween-80 (MCT) solution and administered once daily via oral gavage. […] Tumors were measured by digital caliper over the entire treatment period. Tumor volume was determined using the formula: (length×width^2)×(π/6). Tumor volumes are plotted as means±SEM.

[2] = tested on: MDA-MB-468, HCC70 and patient-derived xenograft; assay: In vivo activity in three different models of TNBC; design: species or system mice; conditions: for tumor growth: three TNBC models, MEHD7945A 10 mg/kg i.p. twice weekly, GDC-0068 40 mg/kg, GDC-0941 75 mg/kg oral once daily
Description: as §1
To test the activity of these compounds in vivo, three different models of TNBC were used: two cell line (MDA-MB-468 and HCC70)-based and a patient-derived xenograft.
All mouse studies were conducted through institutional Animal Care and Use Committee (IACUC) approved animal protocols in accordance with institutional guidelines. Six-week-old female athymic nude mice were purchased from Charles River Laboratories and housed in air-filtered laminar flow cabinets with a 12-hour light cycle and food and water ad libitum.
(§5) For cell line-derived xenograft studies, mice were injected subcutaneously with 1×10^7 HCC70 or MDA-MB-468 suspended in 150 μL culture media/Matrigel (BD Biosciences) in a 4:1 ratio. One μmol/L of 17β-estradiol was supplemented in the mouse drinking water as described (Garcia-Garcia et al., Clinical cancer research: an official journal of the American Association for Cancer Research 18, 2603 (2012)).
as §3, §4

[3] = tested on: HCC70 and MDA-MB-468 cells; assay: Five days proliferation analysis (Crystal Violet / CellTiter-Glo); format: cell-based; conditions: 5 days; MEHD7945A 10 nM, GDC-0068 and GDC-0941 1 uM
Description: Whether the combination of MEHD7945A with GDC-0068 or GDC-0941 would result in enhanced antiproliferative activity was tested in both HCC70 and MDA-MB-468 cells.
as §2

[4] = tested on: MDA-MB-468- and HCC70-derived xenografts; assay: Cell line-derived xenograft tumor growth; format: in vivo, mice; conditions: MDA-MB-468 and HCC70 xenografts; p less than 0.01 combination vs monotherapy
Description: To expand these findings in vivo, the efficacy of MEHD7945A was tested in combination with either the Akt or PI3K inhibitor in both MDA-MB-468- and HCC70-derived xenografts.
as §5, §4

[5] = tested on: EGFR, HER3 and downstream signaling pathways; assay: Western blot of EGFR, HER3 and downstream signaling in cells; format: cell-based; conditions: for expression of HER3: HCC70 and MDA-MB-468 cells; for expression of HER3 / activation of EGFR and HER3: 1 uM; for activation of EGFR and HER3: HCC70 cells
Description: HCC70 and MDA-MB-468 TNBC cell lines, characterized by elevated levels of EGFR and loss of PTEN expression, were treated with GDC-0068, GDC-0941, MEHD7945A, and the combinations of these inhibitors.
Cells were washed with ice-cold phosphate buffered saline (PBS) and scraped into ice-cold RIPA lysis buffer (Cell Signaling) supplemented with phosphatase inhibitor cocktails (Complete Mini, and PhosphoStop (Roche)). Lysates were cleared by centrifugation at 13,000 rpm for 10 minutes at 4° C., supernatants removed and assayed for protein concentration using the Pierce BCA Protein Assay Kit (Thermo Scientific). Thirty-five micrograms of total lysate was resolved on NuPAGE 4-12% Bis-Tris gels (Life Technologies) and electrophoretically transferred to Immobilon transfer membranes (Millipore). Membranes were blocked for 1 hour in 5% nonfat dry milk in TBS-Tween and then hybridized using the following primary antibodies in 5% bovine serum albumin (BSA) TBS-Tween: phospho-Akt (Ser473), phospho-Akt (Thr308), Akt, phospho-S6 (Ser(240/4), phospho-S6 (Ser235/6), S6, phospho-PRAS40 (Thr246), PRAS40, phospho-Erk (Thr202/Tyr204), Erk, phospho-EGFR (Tyr1068), EGFR, phospho-HER3 (Tyr1289), HER3 (1:500-1:1000, Cell Signaling). Beta-actin was used as a loading control (1:5000, Sigma), also in 5% BSA TBS-Tween. Mouse and rabbit horseradish peroxidase (HRP)-conjugated secondary antibodies (1:50,000, Amersham Biosciences) were diluted in 2% nonfat dry milk in TBS-Tween. Protein—antibody complexes were detected by chemiluminescence with SuperSignal West FemtoChemiluminescent Substrate (Thermo Scientific) and images were captured with a G-BOX camera system.

EGFR and HER3 = assay: CEER analysis of active and total EGFR and HER3 in xenograft tumors; format: in vivo, mice; conditions: for active and total levels of HER3 and EGFR (CEER): TNBC PDX, tumors harvested 2 h after the last drug administration
Description: The levels of EGFR and HER3 expression/activation in HCC70 tumors collected at the end of the experiments (day 39) was investigated. […] Frozen tissue was analyzed by Cooperative, Enhanced, Enzyme Immunoreactive (CEER), a platform that utilizes reverse-phase detection of nanogram quantities of protein.
The levels of pathway protein expression and their activation in xenografts were determined by CEER. (Kim et al., ASCO Annual Meeting abstract P2-06-13, (2010)) CEER utilizes the formation of unique immuno-complexes between capture antibodies printed on a nitrocellulose microarray surface, the target molecule in cell lysate reacted with the slide, and two independent detector-antibodies. One of the detector-antibody is conjugated to glucose oxidase, and the other is conjugated to horseradish peroxidase. Target detection (expressed as computational unit, CU) requires the presence of both detector-antibodies and the enzyme channeling event between glucose oxidase and horseradish peroxidase will not occur unless both antibodies are in close proximity.

HCC70 cells = assay: Heregulin- and EGF-induced proliferation; format: cell-based
Description: as §2, with “MEH[…].” for “MEHD7945A.”, “MEH[…]” for “MEHD7945A”

[6] = HCC70 tumors collected at day 39
[7] = cells stimulated with either EGF or Heregulin

| Compound | IC50 (TNBC cell lines) | tumor growth [1] | tumor growth [2] | inhibition of cell proliferation/viability [3] | tumor growth inhibition [4] | expression of HER3 ([5]; 24 hours) | activation of EGFR and HER3 ([5]; 24 hours) | EGFR and HER3 expression and phosphorylation (CEER) (EGFR and HER3; [6]) | total EGFR receptor levels (CEER) (EGFR and HER3; [6]) | active and total levels of HER3 and EGFR (CEER) (EGFR and HER3) | effect on antiproliferative activity mediated by PI3K/Akt inhibition (HCC70 cells; HCC70 cells stimulated with EGF, antibodies 10 nM, GDC-0068 and GDC-0941 1 uM, 5 days) | cooperation with the antiproliferative activity of GDC-0068 and GDC-0941 (HCC70 cells; HCC70 cells stimulated with heregulin (HRG), antibodies 10 nM, 5 days) | effect on antiproliferative activity of the PI3K inhibitors (HCC70 cells; [7]) | EGFR and HER3 phosphorylation consequent to PI3K inhibition in treated tumors ([2]; analysis of treated tumors) | inhibition of the PI3K and ERK downstream pathways ([5]; addition of MEHD7945A 10 nM to GDC-0068 or GDC-0941, both cell lines) | induction of EGFR and HER3 phosphorylation by GDC-0068 or GDC-0941 ([5]; addition of MEHD7945A 10 nM, both cell lines, 24 hours) | HER3/EGFR receptor phosphorylation [5, 7] | EGFR phosphorylation (CEER) (EGFR and HER3; HCC70 xenografts) | HER3 activation (CEER) (EGFR and HER3; HCC70 xenografts) |
| --- | --- | --- | --- | --- | --- | --- | --- | --- | --- | --- | --- | --- | --- | --- | --- | --- | --- | --- | --- |
| CC(C)NC[C@@H](C(=O)N1CCN(c2ncnc3c2[C@H](C)C[C@H]3O)CC1)c1ccc(Cl)cc1 [GDC-0068] | ≥ 170 nM | superior antitumor activity compared with GDC-0941 | variable delay in tumor growth | varying sensitivity | responded only modestly | increased expression of HER3 | activation of both EGFR and HER3 | overall increase of both EGFR and HER3 expression and phosphorylation | no changes in the total receptor levels were observed | increased; also recorded: lower ability to induce EGFR and HER3 phosphorylation | – | – | – | – | – | – | – | – | – |
| CS(=O)(=O)N1CCN(Cc2cc3nc(-c4cccc5[nH]ncc45)nc(N4CCOCC4)c3s2)CC1 [GDC-0941, 4-(2-(1H-indazol-4-yl)-6-((4-(methylsulfonyl)piperazin-1-yl)methyl)thieno[3,2-d]pyrimidin-4-yl)morpholine] | ≥ 170 nM | delayed tumor growth | variable delay in tumor growth | varying sensitivity | responded only modestly | increased expression of HER3 | activation of both EGFR and HER3 | overall increase of both EGFR and HER3 expression and phosphorylation | – | increased | – | – | – | – | – | – | – | – | – |
| MEHD7945A: dual-action antibody with two identical antigen binding domains, each of which specifically binds to both HER3 and EGFR | – | delayed tumor growth | variable delay in tumor growth | varying sensitivity | responded only modestly | – | – | – | – | prevented receptor phosphorylation | enhanced the antiproliferative activity mediated by PI3K/Akt inhibition | superior to cetuximab | improved the antiproliferative activity of the PI3K inhibitors | effectively prevented EGFR and HER3 phosphorylation | enhanced the inhibition of the PI3K and ERK downstream pathways | prevented the induction of EGFR and HER3 phosphorylation | prevented HER3/EGFR receptor phosphorylation | blocked EGFR phosphorylation | decreased HER3 activation |
